Measurements reported in patent US5552405A, “Substituted pyrrolidine derivatives as HIV protease inhibitors” (Bio-Mega/Boehringer Ingelheim Research, Inc., priority 1995, dated 1996).

Assays:
HIV protease = biological target: T1, HIV protease (Human immunodeficiency virus type 1 group M subtype B, UniProt P04585); experiment: Recombinant HIV Protease HPLC Assay; type: biochemical; settings: recombinant HIV protease expressed in E. coli; substrate VSFNFPQITL-NH2; pH 5.5; 37°, 30 min; read-out: IC50, concentration of the test compound which causes a 50% inhibition of the HIV-protease
T1 construct: HIV protease was expressed in E. coli; made in house; host or cells: E. coli
Source text: The procedure is based on the capacity of the test compound to inhibit enzymatic cleavage by HIV protease of a decapeptide (the substratel having an amino acid sequence which includes a known HIV protease cleavage site of a HIV polyprotein; see H. G. Krausslich et al., Proc. Natl. Acad. Sci. U.S.A., 86, 807 (1989). Details of this assay together with the results obtained for exemplified compounds of formula 1 are described in the examples hereinafter.
Enzyme: HIV protease was expressed in E. coli {construct pBRT1 prt^+, see W. G. Farmerie et al., Science, 236, 305 (1987)}, according to the following protocol: Unless stated otherwise, all solutions are aqueous solutions.
E. coli cells containing the pBRT1 prt^+ plasmid were used to inoculate a seed culture media composed of Luria-Bertani Broth containing 100 μg/mL of ampicillin. Flasks were incubated at 37° under agitation for 17 h. Production flasks containing sterile M9 broth, supplemented with 100 μg/mL of ampicillin, were inoculated at a level of 1% (v/v) using the seed culture described above. Total volume in each production flask was 500 mL in a 2 L Erlenmeyer flask. Flasks were incubated at 37° under agitation until a cell concentration corresponding to an optical density (λ=540 μm) of 0.6 was reached (no dilution). This time span was routinely 3-4 h. Flasks were then supplemented with 5 mM isopropylthiogalactoside (IPTG, Research Organics, Cleveland, Ohio, USA) and incubation was continued until the cell concentration reached an optical density of 0.2 at 16-fold dilution. Flasks were then supplemented with 1 mM phenylmethylsulfonyl fluoride (PMSF) and rapidly chilled to 4°. The bacterial cells were recovered by centrifugation at 4°. The wet pellet was stored at -70°.
All steps below were perfomed at 4° unless otherwise indicated. Thawed cells were mixed with buffer A {50 mM tris(hydroxymethyl)aminoethane HCl (Tris-HCl, pH 7.4); 0.6 mM ethylenediaminetetraacetic acid (EDTA); 0.375M NaCl, 0.2% Nonidet P-40® (BDH Chemicals Ltd., Poole, UK); 1 mM PMSF}, at a ratio of one part cells to nine parts buffer A. Diatomaceous earth (Celite 545® John Manville, Lompoc, Calif. U.S.A.) was added at a ratio of two parts to one part of wet cell weight. The resulting slurry was homogenized at high speed (ca. 20,000 rpm) on a Waring® industrial blender for 8×15 sec. pulses. Cell debris/Celite® was collected by centrifugation and the resulting pellet was extracted with 4.5 parts of buffer A to one part wet solids using the homogenization procedure described above. Supernatants from both homogenization steps were combined and soluble protein was precipitated by the addition of solid (NH4)2 SO4 to yield a final concentration of 75% saturation. This mixture was agitated for 60 min and the precipitate was recovered by centrifugation. The resulting pellet was suspended in buffer B {50 mM Tris-HCl, pH 8; 30 mM NaCl; 1 mM DL-dithiothreitol (DTT); 1 mM EDTA; mM PMSF; 10% glycerol}, and dialyzed for 18 h against the same buffer.
An aliquot of the dialyzed extract containing 150 mg of the protein was loaded onto a Sephadex A25® anion exchange column (Pharmacia, Uppsala, Sweden) with bed dimensions of 70 cm length and 2.5 cm diameter. The sample was eluted isocratically with buffer B at a linear flow rate of 10 cm/h. Fractions containing HIV protease activity (see below for assay description) were combined, and soluble protein was precipitated by the addition of saturated aqueous (NH4)2 SO4 to yield a total (NH4)2 SO4 concentration of 85% saturation. Precipitated protein was removed by centrifugation and the resulting pellet was dissolved in buffer C {50 mM 2-(4-morpholino)ethanesulfonic acid (MES), pH 5.5; 150 mM NaCl; 1 mM DTT; 1 mM EDTA; 10% glycerol}. This preparation was dialyzed for 18 h against buffer C, and then frozen at -70°. All crude extracts were purified by chromatography in aliquots containing 150 mg of protein in the same manner as described above. […]

[1] = tested on: HIV (H9/HTLV-IIIB) in HTLV-I transformed C8166 cells; experiment: plaque assay, inhibition of HIV (H9/HTLV-IIIB) syncytia formation in C8166 cells; type: cell-based; settings: Human immunodeficiency virus 1, fifty times TCID50, 37°, 72 h, read-out: EC50, concentration of the test compound which causes a 50% inhibition of syncytia formation
Source text: Typical of such procedures are those described by S. Harada and N. Yamamoto, Jpn. J. Cancer Res. (Gann), 76, 432 (1985), and S. Harada et al., Science, 229, 563 (1985). An assay based on the latter procedures is described in the examples hereinafter.
The following protocol, used for screening antiviral effects of the compounds of formula 1, is adapted from a plaque assay utilizing HTLV-I transformed cells, previously reported by Harada et al., supra. HTLV-I transformed cells are used because of the rapidity with which HIV will replicate in the cells.
1. The test compound is dissolved in dimethylsulfoxide to a concentration of 5 mg/mL. The resultant solution can be stored at 4° until use.
2. The resultant solution is diluted in RPMI 1640 (Gibco Laboratories, St. Lawrence, Mass., USA) to four times (4×) the final concentration which is to be tested. Once diluted in RPMI 1640, the solution is used in the cell culture assay within 4 h.
3. The 4×solution (50 μL) is added to triplicate wells of a 96 well flat bottomed microtiter plate. RPMI (50 μL) also is added to control wells.
4. C8166 cells (5×10^4) in […] of HEPES-buffered RPMI 1640 (pH=7.2), 10% heat inactivated fetal calf serum (FCS), […] gentamicin (complete media) are added to all wells.
5. Fifty times TCID50 of H9/HTLV-IIIB stock (stored in liquid nitrogen as cell culture supernatant in 50% FCS) in 100 μL of complete media is added to all wells. Infectious titer of virus stocks are as previously determined by end point dilution on C8166 cells. Titer of stocks are stable for 6-12 months when stored at -193°.
6. Microtiter plates are then placed on level shelves of a 37°, 5% CO2 humidified incubator for 72 h.
7. Plates are then removed and centers of syncytia are counted in each well by low power phase contrast light microscopy. […] Control wells should have between 25 and 75 centers of syncytia per well.
8. Percent inhibition of syncytia formation is calculated by the formula: [formula]
The concentration of the test compound which causes a 50% inhibition of syncytia formation, i.e. the EC50, is determined by using the technique of serial dilution of the working solution at step 3 and graphically plotting the observed percent inhibition of syncytia formation against the various concentrations of the test compound.

For `CC(C)[C@H](NC(=O)c1ccc2ccccc2n1)C(=O)N[C@@H](Cc1ccccc1)[C@H](O)CN1C[C@H](Sc2ncccn2)C[C@H]1C(=O)NC(C)(C)C` [Entry 10], the IC50 (HIV protease) was 0.0047 µM.

In the case of `Cc1cccc(C)c1OCC(=O)N[C@@H](Cc1ccccc1)[C@H](O)CN1C[C@H](SCc2cccnc2)C[C@H]1C(=O)NC(C)(C)C` [Entry 14], the IC50 (HIV protease) is reported as 0.043 µM.

Compound `CC(C)[C@H](NC(=O)c1ccc2ccccc2n1)C(=O)N[C@@H](Cc1ccccc1)[C@H](O)CN1C[C@H](SCc2cccnc2)C[C@H]1C(=O)NC(C)(C)C` [Table I Entry 11, N-tert-butyl-1-{2(R)-hydroxy-4-phenyl-3(S)-{{N-(2-quinolinylcarbonyl)valyl}amino}butyl}-4(R)-{(3-pyridinylmethyl)thio}pyrrolidine-2(S)-carboxamide] has an IC50 (HIV protease) of 0.012 µM and an EC50 [1] of 0.48 µM.

For `Cc1cccc(C)c1OCC(=O)N[C@@H](Cc1ccccc1)[C@H](O)CN1C[C@H](Sc2ncccn2)C[C@H]1C(=O)NC(C)(C)C` [Entry 13], the IC50 (HIV protease) was 0.0046 µM.

`CC(C)(C)NC(=O)[C@@H]1C[C@@H](Cc2ccccc2)CN1C[C@@H](O)[C@H](Cc1ccccc1)NC(=O)[C@H](CC(N)=O)NC(=O)OCc1ccccc1` [Table I Entry 8, 4(R)-Benzyl-1-{3(S)-{{N-(benzyloxycarbonyl)asparaginyl}amino}-2(R)-hydroxy-4-phenylbutyl}-N-tert-butylpyrrolidine-2(S)-carboxamide] showed an IC50 (HIV protease) of 0.048 µM and an EC50 [1] of 0.7 µM.

`CC(C)(C)NC(=O)[C@@H]1C[C@@H](OCc2ccccc2)CN1C[C@@H](O)[C@H](Cc1ccccc1)NC(=O)[C@H](CC(N)=O)NC(=O)OCc1ccccc1` [Table I Entry 3, 4(R)-Benzyloxy-1-{3(S)-{{N-(benzyloxycarbonyl)asparaginyl}amino}-2(R)-hydroxy-4-phenylbutyl}-N-tert-butylpyrrolidine-2(S)-carboxamide] showed an IC50 (HIV protease) of 0.039 µM and an EC50 [1] of 0.6 µM.

`CC(C)(C)NC(=O)[C@@H]1C[C@H](Cc2ccccc2)CN1C[C@@H](O)[C@H](Cc1ccccc1)NC(=O)[C@H](CC(N)=O)NC(=O)OCc1ccccc1` [Table I Entry 9, 4(S)-Benzyl-1-{3(S)-{{N-(benzyloxycarbonyl)asparaginyl}amino}-2(R)-hydroxy-4-phenylbutyl}-N-tert-butylpyrrolidine-2(S)-carboxamide] gave an IC50 (HIV protease) of 0.78 µM and an EC50 [1] of 4 µM.

In the case of `Cc1cccc(C)c1OCC(=O)N[C@@H](Cc1ccccc1)[C@H](O)CN1C[C@H](Sc2ncccn2)C[C@H]1C(=O)NC(C)(C)C` [Table I Entry 13, N-tert-butyl-1-{3(S)-{{(2,6-dimethylphenoxy)acetyl}amino}-2(R)-hydroxy-4-phenylbutyl}-4(R)-(2-pyrimidinylthio)pyrrolidine-2(S)-carboxamide], the EC50 [1] is reported as 0.25 µM.

For `Cc1cc(O[C@@H]2C[C@@H](C(=O)NC(C)(C)C)N(C[C@@H](O)[C@H](Cc3ccccc3)NC(=O)[C@@H](NC(=O)c3ccc4ccccc4n3)C(C)C)C2)nc(C)n1` [Table I Entry 12, N-tert-butyl-1-{2(R)-hydroxy-4-phenyl-3(S)-{{N-(2-quinolinylcarbonyl)valyl}amino}butyl}-4(R)-{(2,6-dimethyl-4-pyrimidinyl)oxy}pyrrolidine-2(S)-carboxamide], the IC50 (HIV protease) was 0.0094 µM and the EC50 [1] was 0.39 µM.

Work on `CC(C)CO[C@H]1C[C@@H](C(=O)NC(C)(C)C)N(C[C@@H](O)[C@H](Cc2ccccc2)NC(=O)[C@@H](NC(=O)OCc2ccccc2)C(C)C)C1` [Table I Entry 5, 1-{3(S)-{{N-(benzyloxycarbonyl)valyl}amino}-2(R)-hydroxy-4-phenylbutyl}-N-tert-butyl-4(S)-(2-methylpropyloxy)pyrrolidine-2(S)-carboxamide] yielded an IC50 (HIV protease) of 0.745 µM.

For `CC(C)[C@H](NC(=O)OCc1ccccc1)C(=O)N[C@@H](Cc1ccccc1)[C@H](O)CN1C[C@H](OCc2ccccc2)C[C@H]1C(=O)NC1CC1` [Table I Entry 7, 4(R)-Benzyloxy-1-{3(S)-{{N-(benzyloxycarbonyl)valyl}amino}-2(R)-hydroxy-4-phenylbutyl}-N-cyclopropylpyrrolidine-2(S)-carboxamide], the IC50 (HIV protease) was 0.1 µM and the EC50 [1] was 0.9 µM.

`CC(C)CO[C@@H]1C[C@@H](C(=O)NC(C)(C)C)N(C[C@@H](O)[C@H](Cc2ccccc2)NC(=O)[C@@H](NC(=O)OCc2ccccc2)C(C)C)C1` [Table I Entry 6, 1-{3(S)-{{N-(benzyloxycarbonyl)valyl}amino}-2(R)-hydroxy-4-phenylbutyl}-N-tert-butyl-4(R)-(2-methylpropyloxy)pyrrolidine-2(S)-carboxamide] gave an IC50 (HIV protease) of 0.18 µM and an EC50 [1] of 3 µM.

Compound `CC(C)(C)NC(=O)[C@@H]1C[C@H](OCc2ccccc2)CN1C[C@@H](O)[C@H](Cc1ccccc1)NC(=O)[C@H](CC(N)=O)NC(=O)OCc1ccccc1` [Table I Entry 4, 4(S)-Benzyloxy-1-{3(S)-{{N-(benzyloxycarbonyl)asparaginyl}amino}-2(R)-hydroxy-4-phenylbutyl}-N-tert-butylpyrrolidine-2(S)-carboxamide] has an IC50 (HIV protease) of 0.3 µM.

`CC(C)[C@H](NC(=O)c1ccc2ccccc2n1)C(=O)N[C@@H](Cc1ccccc1)[C@H](O)CN1C[C@H](Sc2ncccn2)C[C@H]1C(=O)NC(C)(C)C` [Table I Entry 10, N-tert-butyl-1-{2(R)-hydroxy-4-phenyl-3(S)-{{N-(2-quinolinylcarbonyl)valyl}amino}butyl}-4(R)-(2-pyrimidinylthio)pyrrolidine-2(S)-carboxamide] gave an EC50 [1] of 0.25 µM.

In the case of `CC(C)[C@H](NC(=O)OCc1ccccc1)C(=O)N[C@@H](Cc1ccccc1)[C@H](O)CN1C[C@H](OCc2ccccc2)C[C@H]1C(=O)NC(C)(C)C` [Entry 2], the IC50 (HIV protease) is reported as 0.016 µM.
